From patent publication US12653797B2, “Tablet and method for manufacturing same” (AYUMI PHARMACEUTICAL CORPORATION, priority 2020, dated 2026)

assay: Measurement of the particle diameter of the acetaminophen active pharmaceutical ingredients (dry laser diffraction); type: physicochemical; conditions: dispersion air pressure 0.5 bar
From the text: There may be some differences between manufacturing lots. In addition, the volume-average particle diameter (MV) of the present acetaminophen active pharmaceutical ingredient can be in the range from 100 to 350 μm and may be in the range from 120 to 330 μm. There may be some differences between manufacturing lots. The particle size distribution in the present invention is acquired by evaluation of the volumetric distribution using dry particle diameter measurement by a laser diffraction method (Laser Micron Sizer LMS-2000e (Seishin Enterprise Co., Ltd.)). D50 is the particle diameter at the 50% accumulation of the individual volumes from the small diameter side of the particle size distribution, and is referred to as the median particle diameter. (3) Measurement of the Particle Diameter of the Acetaminophen Active Pharmaceutical Ingredients The acetaminophen active pharmaceutical ingredients were subjected to dry measurement of the particle diameter by a laser diffraction method. A Laser Micron Sizer LMS-2000e (Seishin Enterprise Co., Ltd.) was used for measurement of the particle size distribution. The measurement was carried out at a dispersion compressed air pressure of 0.5 bar.

| SMILES | D10 | D50 (median particle diameter) | D90 | MV (volume-average particle diameter) |
| --- | --- | --- | --- | --- |
| CC(=O)Nc1ccc(O)cc1 [AA API a, acetaminophen] | 73 μm | 224 μm | 404 μm | 234 μm |
| CC(=O)Nc1ccc(O)cc1 [AA API b, acetaminophen] | 62 μm | 191 μm | 353 μm | 202 μm |
| CC(=O)Nc1ccc(O)cc1 [AA API f, acetaminophen] | 42 μm | 202 μm | 426 μm | 222 μm |

Continued, values first:

| D10 | D50 (median particle diameter) | D90 | MV (volume-average particle diameter) | SMILES |
| --- | --- | --- | --- | --- |
| 27 μm | 147 μm | 357 μm | 173 μm | CC(=O)Nc1ccc(O)cc1 [AA API c, acetaminophen] |
| 75 μm | 419 μm | 855 μm | 452 μm | CC(=O)Nc1ccc(O)cc1 [AA API d, acetaminophen] |
| 5.7 μm | 26 μm | 116 μm | 46 μm | CC(=O)Nc1ccc(O)cc1 [AA API e, acetaminophen] |
| 125 μm | 288 μm | 516 μm | 306 μm | CC(=O)Nc1ccc(O)cc1 [AA API g, acetaminophen] |
